{
  "source": "patent US12319913B2",
  "about": "“5-halouracil-modified microRNAs and their use in the treatment of cancer” (The Research Foundation for The State University of New York, priority 2018, dated 2025)",
  "assay_type_in_all_cases": "cell-based, human",
  "key": {"[1]": {"test_system": "HCT-116 colon cancer cells", "assay": "5-FU treatment and cytotoxicity assay (WST-1)", "conditions": "50 nM modified miR-129 vs 2 μM 5-FU", "procedure": "5-FU treatment and cytotoxicity assay: Twenty-four hours after transfection, cancer cells were plated in 96-well plates at 2×10^3 cells per well in triplicates in 100 μL of medium. After 24 hours, fresh medium containing 2 μM 5-FU alone, 50 nM native microRNA, 50 nM modified microRNA (e.g., modified miR-129), or a combination of […] with 50 nM a modified microRNA of the present disclosure e.g., modified miR-129, were added, and cells were cultured for an additional 72 hours. Cell viability was measured using the WST-1 assay."}, "TS, BCL2 and E2F3": {"test_system": "TS, BCL2 and E2F3", "assay": "Western immunoblot of miR-129 targets in HCT-116 cells", "conditions": "colon cancer HCT-116 cells", "procedure": "(§1) Western immunoblot analysis: Forty-eight hours after transfection, equal amounts of protein (15 μg) extracted from cells lysed in RIPA buffer with protease inhibitor (Sigma) and were separated on 10%-12% sodium dodecyl sulfate-polyacrylamide gels using standard procedures. The primary antibodies used for the analysis were rabbit anti-YAP1 monoclonal antibody (1:10000) (Cell Signaling Technologies), anti-DLCK1 (1:500) (Abcam), anti-BCL2 (1:500) (NeoMarkers), anti-MDC1 (1:500), anti-SUZ12 (1:500), anti-pChk-1 (1:500), anti beta-actin (1:500), anti-BMI-1 (1:10000) (Cell Signaling Technologies), mouse anti-human TS antibody (1:500), anti-α-tubulin (1:50000) (Santa Cruz Biotech Inc.), anti-GAPDH (1:100000) (Santa Cruz Biotech Inc.), anti-E2F3 (1:500) (Santa Cruz Biotech Inc.), Horseradish peroxidase-conjugated antibodies against mouse or rabbit (1:5000, Santa Cruz Biotech Inc.) were used as the secondary antibodies. Protein bands were visualized with autoradiography film using SuperSignal West Pico Chemiluminescent Substrate (Thermo Fischer). Western blot density was quantified using Image J software."}, "[2]": {"test_system": "HCT116 colon cancer cells", "assay": "WST-1 cell proliferation assay, HCT116", "conditions": "for inhibition of colon cancer cell proliferation: HCT116, in words, vs controls", "procedure": "For transfections, […] (Thermo Fischer) following the manufacturer's protocols. For reagent free transfection, cells were plated in 6 well plates at (1×10^5) cells per well. Twenty-four hours later 100 pmol miRNA (Control, miR-15a, Mimic-1) were diluted in Optimem (Thermo Fischer) and added to the plate. Media was changed after 24 hours. Media was supplemented with 10% fetal bovine serum (Thermo Fischer). Briefly, cells were cultured in growth media (DMEM/F12 supplemented with B27, 10 ng/mL bFGF, and 20 ng/mL EGF (Life Technologies) in ultra-low attachment flasks) for up to 6 days. The spheroid cells were maintained by collection through gentle centrifugation, dissociation to single cells and replating.\nCell proliferation assay: Twenty-four hours after transfection, cells were seeded in 96-well plates at a density of 2000 cells per well. The cell proliferation assay was performed on days 1 to 5 by incubating 10 μl WST-1 (Roche Applied Science, Mannheim, Germany) in the culture medium for 1 h and reading the absorbance at 450 and 630 nm. The cell proliferation rate was calculated by subtracting the […]. Experiments for the cell proliferation assay were performed at least three times. The O.D. was calculated by subtracting the absorbance at 630 nm from that at 450 nm. Proliferation experiments were performed three times."}, "[3]": {"test_system": "SKBR3 breast cancer cells", "assay": "Cell proliferation, SKBR3", "conditions": "SKBR3, compared to negative controls", "in_short": "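Cells transfected with 100 nM control, modified or native miRNA (Oligofectamine) or with 100 pmol miRNA without reagent. Seeded at 2000 cells/well 24 h post-transfection; WST-1 read for 1 h on days 1 to 5 at 450 and 630 nm. Values are O.D. (450 minus 630 nm), from at least three experiments.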"}, "[4]": {"test_system": "Panc-1 pancreatic cancer cells", "assay": "Cell proliferation, Panc-1", "conditions": "for cell proliferation, dose dependence: PANC-1, 50 nM, 25 nM, 12.5 nM, 6.25 nM, and 3.125 nM"}, "[5]": {"test_system": "YAP1, BMI1, DCLK1 and BCL2", "assay": "Western blot of miR-15a targets in HCT-116 colon cancer stem cells", "conditions": "three days following transfection", "procedure": "as §1, with “[…],” for “Forty-eight hours after transfection,”, “software. […]” for “software.”"}},
  "note": "[5FU] = 5-fluorouracil base replacing uracil",
  "data": [
    {"substance": "CU^FU^FU^FU^FU^FGCGGU^FCU^FGGGCU^FU^FGC (CUUUUUGCGGUCUGGGCUUGC; RNA, [5FU] at 2, 3, 4, 5, 6, 11, 13, 18, 19, backbone not given here) [modified miR-129]", "values": [
      {"measurement": "inhibiting tumor cell proliferation, potency compared with 5-FU", "setting": "[1]", "value": "much more potent than 2 μM 5-FU"},
      {"measurement": "target specificity to TS, BCL2 and E2F3", "setting": "TS, BCL2 and E2F3; Western immunoblot", "value": "retain their target specificity"},
      {"measurement": "reducing the expression levels of TS, BCL2 and E2F3", "setting": "TS, BCL2 and E2F3; compared with unmodified (control) miR-129", "value": "more potent than unmodified (control) miR-129"},
      {"measurement": "HCT-116 tumor cell growth", "setting": "[2]; 50 nM", "value": "suppress HCT-116 tumor cell growth completely"},
      {"measurement": "inhibition of colon cancer cell proliferation", "setting": "[2]", "value": "inhibition of colon cancer cell proliferation"},
      {"measurement": "inhibitory effect on cell proliferation relative to native miR-129", "setting": "[2]; HCT-116, FIG. 3", "value": "much more potent than the native miR-129"},
      {"measurement": "breast cancer cell proliferation", "setting": "[3]", "value": "inhibited"},
      {"measurement": "cell proliferation, dose dependence", "setting": "[4]", "value": "inhibited in a dose dependent manner"}
    ]},
    {"substance": "U^FAGCAGCACAU^FAAU^FGGU^FU^FU^FGU^FG (UAGCAGCACAUAAUGGUUUGUG; RNA, [5FU] at 1, 11, 14, 17, 18, 19, 21, backbone not given here) [modified miR-15a]", "values": [
      {"measurement": "inhibition of colon cancer cell proliferation", "setting": "[2]", "value": "enhanced ability to inhibit colon cancer cell proliferation"},
      {"measurement": "decrease of cell proliferation compared to control", "setting": "[2]; HCT-116, WST-1, six days after transfection", "value": 84, "unit": "%"},
      {"measurement": "breast cancer cell proliferation", "setting": "[3]", "value": "inhibited"},
      {"measurement": "protein levels of YAP1, BMI1, DCLK1 and BCL2", "setting": "[5]", "value": "reduced"},
      {"measurement": "cell proliferation, dose dependence", "setting": "[4]", "value": "inhibited in a dose dependent manner"},
      {"measurement": "inhibition of cell proliferation", "setting": "[4]; Panc-1, compared to unmodified miR or negative controls", "value": "enhanced ability to inhibit"}
    ]}
  ]
}
